According to ChEMBL document CHEMBL3885881, “DrugMatrix”:

Species on record: Rattus norvegicus
Assay: DrugMatrix - Regimen: Daily Repeat
Type: toxicity, organism-based, Sprague-Dawley
Set-up: regimen Daily Repeat, gender Male, age 6-8 weeks
Settings: in vivo, po, route oral GAVAGE, vehicle 100 % WATER; for ABSOLUTE BASOPHIL / ABSOLUTE EOSINOPHIL / ABSOLUTE LYMPHOCYTE / ABSOLUTE MONOCYTE / ABSOLUTE SEGMENTED NEUTROPHIL / BASOPHIL / EOSINOPHIL / ERYTHROCYTE COUNT / HEMATOCRIT / HEMOGLOBIN / LEUKOCYTE COUNT / LYMPHOCYTE / MEAN CORPUSCULAR HEMOGLOBIN / MEAN CORPUSCULAR HEMOGLOBIN CONCENTRATION / MEAN CORPUSCULAR VOLUME / MONOCYTE / NEUTROPHIL / NUCLEATED RED BLOOD CELLS / PLATELET COUNT: tissue Blood; for ALANINE AMINOTRANSFERASE / ALBUMIN / ALKALINE PHOSPHATASE / ASPARTATE AMINOTRANSFERASE / BLOOD UREA NITROGEN / CARBON DIOXIDE / CHLORIDE / CHOLESTEROL / CREATINE PHOSPHOKINASE / CREATININE / GLUCOSE / LACTATE DEHYDROGENASE / LIPASE / PHOSPHORUS / POTASSIUM / SODIUM / TOTAL BILIRUBIN / TOTAL PROTEIN / URIC ACID: tissue Plasma
[1] = 0 mg/kg, 72 h, dose level Control, time 3 day
[2] = 0 mg/kg, 120 h, dose level Control, time 5 day
[3] = 1 mg/kg, 72 h, dose level Low, time 3 day

CC[C@H](C)[C@H]1O[C@]2(C=C[C@@H]1C)C[C@@H]1C[C@@H](C/C=C(\C)[C@@H](O[C@H]3C[C@H](OC)[C@@H](O[C@H]4C[C@H](OC)[C@@H](O)[C@H](C)O4)[C@H](C)O3)[C@@H](C)/C=C/C=C3\CO[C@@H]4[C@H](O)C(C)=C[C@@H](C(=O)O1)[C@]34O)O2.CO[C@H]1C[C@H](O[C@H]2[C@H](C)O[C@@H](O[C@@H]3/C(C)=C/C[C@@H]4C[C@@H](C[C@]5(C=C[C@H](C)[C@@H](C(C)C)O5)O4)OC(=O)[C@@H]4C=C(C)[C@@H](O)[C@H]5OC/C(=C\C=C\[C@@H]3C)[C@]54O)C[C@@H]2OC)O[C@@H](C)[C@@H]1O [ABAMECTIN]
ABSOLUTE BASOPHIL [1]: 0 CELLS/uL | ABSOLUTE EOSINOPHIL [1]: 40 CELLS/uL | ABSOLUTE LYMPHOCYTE [1]: 13599.5 CELLS/uL | ABSOLUTE MONOCYTE [1]: 239.33 CELLS/uL | ABSOLUTE SEGMENTED NEUTROPHIL [1]: 1021.17 CELLS/uL | BASOPHIL [1]: 0% | EOSINOPHIL [1]: 0.33% | ERYTHROCYTE COUNT [1]: 5.71 x10E6/uL | HEMATOCRIT [1]: 36.35% | HEMOGLOBIN [1]: 14.05 G/DL | LEUKOCYTE COUNT [1]: 14.9 x10E3/uL | LYMPHOCYTE [1]: 91% | MEAN CORPUSCULAR HEMOGLOBIN [1]: 24.62 pg | MEAN CORPUSCULAR HEMOGLOBIN CONCENTRATION [1]: 38.65 G/DL | MEAN CORPUSCULAR VOLUME [1]: 63.7 fL | MONOCYTE [1]: 1.5% | NEUTROPHIL [1]: 7.17% | NUCLEATED RED BLOOD CELLS [1]: 0.33 /100WBC | PLATELET COUNT [1]: 1225.5 x10E3/uL | ALANINE AMINOTRANSFERASE [1]: 48.5 u/L | ALBUMIN [1]: 4.18 G/DL | ALKALINE PHOSPHATASE [1]: 390.83 u/L | ASPARTATE AMINOTRANSFERASE [1]: 89 u/L | BLOOD UREA NITROGEN [1]: 14.83 mg/dL | CARBON DIOXIDE [1]: 24.83 mmol/L | CHLORIDE [1]: 100.83 MEQ/L | CHOLESTEROL [1]: 72.5 mg/dL | CREATINE PHOSPHOKINASE [1]: 503 u/L | CREATININE [1]: 0.2 mg/dL | GLUCOSE [1]: 163 mg/dL | LACTATE DEHYDROGENASE [1]: 316.83 u/L | LIPASE [1]: 9.83 u/L | PHOSPHORUS [1]: 11.57 mg/dL | POTASSIUM [1]: 6.16 MEQ/L | SODIUM [1]: 142.62 MEQ/L | TOTAL BILIRUBIN [1]: 0.2 mg/dL | TOTAL PROTEIN [1]: 5.8 G/DL | URIC ACID [1]: 1.65 mg/dL | ABSOLUTE BASOPHIL [2]: 0 CELLS/uL | ABSOLUTE EOSINOPHIL [2]: 21 CELLS/uL | ABSOLUTE LYMPHOCYTE [2]: 14288.5 CELLS/uL | ABSOLUTE MONOCYTE [2]: 205.33 CELLS/uL | ABSOLUTE SEGMENTED NEUTROPHIL [2]: 968.5 CELLS/uL | BASOPHIL [2]: 0% | EOSINOPHIL [2]: 0.17% | ERYTHROCYTE COUNT [2]: 5.83 x10E6/uL | HEMATOCRIT [2]: 36.53% | HEMOGLOBIN [2]: 14.4 G/DL | LEUKOCYTE COUNT [2]: 15.48 x10E3/uL | LYMPHOCYTE [2]: 92% | MEAN CORPUSCULAR HEMOGLOBIN [2]: 24.72 pg | MEAN CORPUSCULAR HEMOGLOBIN CONCENTRATION [2]: 39.43 G/DL | MEAN CORPUSCULAR VOLUME [2]: 62.68 fL | MONOCYTE [2]: 1.33% | NEUTROPHIL [2]: 6.5% | NUCLEATED RED BLOOD CELLS [2]: 0.17 /100WBC | PLATELET COUNT [2]: 1280.5 x10E3/uL | ALANINE AMINOTRANSFERASE [2]: 50 u/L | ALBUMIN [2]: 4.28 G/DL | ALKALINE PHOSPHATASE [2]: 380.17 u/L | ASPARTATE AMINOTRANSFERASE [2]: 82.67 u/L | BLOOD UREA NITROGEN [2]: 15.33 mg/dL | CARBON DIOXIDE [2]: 27.17 mmol/L | CHLORIDE [2]: 100.33 MEQ/L | CHOLESTEROL [2]: 60.67 mg/dL | CREATINE PHOSPHOKINASE [2]: 441.5 u/L | CREATININE [2]: 0.16 mg/dL | GLUCOSE [2]: 146 mg/dL | LACTATE DEHYDROGENASE [2]: 189.33 u/L | LIPASE [2]: 9.17 u/L | PHOSPHORUS [2]: 11.67 mg/dL | POTASSIUM [2]: 6.86 MEQ/L | SODIUM [2]: 142.33 MEQ/L | TOTAL BILIRUBIN [2]: 0.2 mg/dL | TOTAL PROTEIN [2]: 6.12 G/DL | URIC ACID [2]: 1.82 mg/dL | ABSOLUTE BASOPHIL [3]: 0 CELLS/uL | ABSOLUTE EOSINOPHIL [3]: 0 CELLS/uL | ABSOLUTE LYMPHOCYTE [3]: 13707 CELLS/uL | ABSOLUTE MONOCYTE [3]: 388 CELLS/uL | ABSOLUTE SEGMENTED NEUTROPHIL [3]: 1005 CELLS/uL | BASOPHIL [3]: 0% | EOSINOPHIL [3]: 0% | ERYTHROCYTE COUNT [3]: 5.4 x10E6/uL | HEMATOCRIT [3]: 34.53% | HEMOGLOBIN [3]: 13.23 G/DL | LEUKOCYTE COUNT [3]: 15.1 x10E3/uL | LYMPHOCYTE [3]: 91% | MEAN CORPUSCULAR HEMOGLOBIN [3]: 24.47 pg | MEAN CORPUSCULAR HEMOGLOBIN CONCENTRATION [3]: 38.3 G/DL | MEAN CORPUSCULAR VOLUME [3]: 63.93 fL | MONOCYTE [3]: 2.67% | NEUTROPHIL [3]: 6.33% | NUCLEATED RED BLOOD CELLS [3]: 0 /100WBC | PLATELET COUNT [3]: 1310 x10E3/uL | ALANINE AMINOTRANSFERASE [3]: 54 u/L | ALBUMIN [3]: 4.17 G/DL | ALKALINE PHOSPHATASE [3]: 413 u/L | ASPARTATE AMINOTRANSFERASE [3]: 81.33 u/L | BLOOD UREA NITROGEN [3]: 14.33 mg/dL | CARBON DIOXIDE [3]: 26.67 mmol/L | CHLORIDE [3]: 100.33 MEQ/L | CHOLESTEROL [3]: 79.67 mg/dL | CREATINE PHOSPHOKINASE [3]: 332.67 u/L | CREATININE [3]: 0.19 mg/dL | GLUCOSE [3]: 158 mg/dL | LACTATE DEHYDROGENASE [3]: 294.67 u/L | LIPASE [3]: 9 u/L | PHOSPHORUS [3]: 11.97 mg/dL | POTASSIUM [3]: 6.52 MEQ/L | SODIUM [3]: 142.57 MEQ/L | TOTAL BILIRUBIN [3]: 0.23 mg/dL | TOTAL PROTEIN [3]: 5.73 G/DL | URIC ACID [3]: 1.57 mg/dL
